Earlier results, collected in patent publication US7727979B2, “Guanidine derivatives and their use as neuropeptide FF receptor antagonists” (Actelion Pharmaceuticals Ltd., priority 2003, dated 2010).

Tested on: human and rat-NPFF1 receptor

NC(N)=NCCC[C@@H](NC(=O)C(c1ccccc1)c1ccccc1)C(=O)NCc1ccc(O)cc1 [BIBP3226]
times higher affinity to NPFF1 receptor than to the corresponding NPFF2 receptors: 10-60 times
